This test has as its system CEM cells HIV-1 protection, formazan growth assay. In words: NCI AIDS Antiviral Assay. As to conditions: for IC50: measured here: growth of uninfected CEM cells. An outline of the steps:
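Human CEM cells, uninfected and HIV-1-infected, received five drug concentrations, and growth was read by soluble formazan assay. Compounds giving at least 50% protection were retested; reproducible 100% protection defined confirmed active.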

Calls of active or inactive are those of the source.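 The calls were made as follows: active = compounds giving half or more protection of infected cells from virus-caused growth loss, again on retest; inactive = the rest.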 Where a SMILES comes first, the peptide text is derived from it. The star is where a group is joined. Cbz = O=C(OCc1ccccc1)*

Consider `CCOc1ccc(N(CC(=O)N2CC(=O)Nc3cc(C)c(C)cc32)C(C)=O)cc1`, for which the EC50 (commonly the concentration that produces a half-maximal response) was over 13.2 µM and the IC50 – broadly, the concentration at which inhibition is half-maximal – is over 13.2 µM. `Cn1c[n+](C2OC(CO)C(O)C2O)c2nc([O-])[nH]c(=O)c21` (configuration not stated): the EC50 is over 17.4 µM and the IC50 was 9.77 µM.

For the molecule `CCOC(=O)C(NC(=O)c1nc[nH]c1[N+](=O)[O-])C(C)C` (configuration not stated), the EC50 is over 91.2 µM and the IC50 was 63.1 µM.

Turning to `CC(=O)O[C@@H]1C(=O)O[C@@H]2CO[C@H](c3ccccc3)O[C@H]12`, the EC50 is over 200 µM and the IC50 is over 200 µM. Regarding `O=C1c2ccccc2C(=O)N1C/C(Cl)=C/Cl`, the EC50 was over 200 µM and the IC50 was over 200 µM.

For the molecule `Cc1n(Cc2ccccc2)c2c([n+]1C)C(=O)c1ccccc1C2=O`, the EC50 was over 562 µM and the IC50 came out at 0.178 µM. For `CCCCn1[nH]c(=O)ccc1=O` the same measures were over 1480 µM and 1410 µM. Consider `COC(=O)c1cc(=O)n(-c2ccc3nn(C)nc3c2)cc1C(=O)OC`, for which the EC50 is over 200 µM and the IC50 was over 200 µM. For `C=C(C(=O)OC)c1cc2ccccc2n1S(=O)(=O)c1ccccc1`, the EC50 was over 20 µM and the IC50 worked out at 3.02 µM. For `COC(=O)/C=C(\C)C(=O)N(C)c1ccccc1I` the same measures were over 200 µM and 123 µM. As for `Cc1ccc2c(c1)SCc1c-2[nH]c2ccccc12`, the outcome was inactive. Regarding `Cc1cc2nc3ccc(=[N+](C)C)cc-3sc2cc1N`, the EC50 was over 117 µM and the IC50 came out at 0.676 µM.

For the molecule `CC1CCCC/C1=N/NS(=O)(=O)c1ccc(N)cc1` (configuration not stated), the EC50 is over 240 µM and the IC50 is over 240 µM. For `Cc1ccc(S(=O)(=O)OCCC2CN(C(=O)OCc3ccccc3)C(C)(C)O2)cc1` (configuration not stated), the EC50 was over 200 µM and the IC50 was found to be 14.1 µM.

With `Cn1c2ccc(Cl)cc2c2oc(-c3nn[nH]n3)cc(=O)c21`, the EC50 is over 200 µM and the IC50 turned out to be 174 µM. For `CNC1C(OC2C(OC3C(O)C(O)C(O)C(O)C3O)OC(C)C2(O)CO)OC(CO)C(O)C1O` (configuration not stated) (tested in a mixture with another compound), the outcome was inactive.

Consider `O=C(NNc1ccccc1)/C(=C/c1ccc2c(c1)OCO2)NC(=O)c1ccccc1`, for which the EC50 is over 12.9 µM and the IC50 is over 12.9 µM. On to `Cc1nc(NC(C)(CO)CO)nc2c1C(=O)Nc1ccccc1N2`, for which the EC50 was over 200 µM and the IC50 is over 200 µM. `CCN(CC)CCNC(=O)C1COc2ccc(-c3cc(=O)c4ccccc4o3)cc2O1` (configuration not stated): the result was inactive. The same measure, in the same setting: for `Nc1cc(=O)[nH]c(N)n1` the value was “inactive”; for `O=C(O)CCSC(=O)Nc1ccccc1F`, “inactive”. For `CC(=O)NC(CO)C(=O)NC(Cc1ccc(O)cc1)C(=O)NCC(N)=O` (stereo not drawn) (Ac-Ser-Tyr-Gly-NH2; configuration not given here), the EC50 was over 200 µM and the 50% inhibitory concentration (IC50) is over 200 µM. Turning to `COC(=O)CCC1(C)C2CCC1(C)/C(=N/O)C2` (configuration not stated), the EC50 is over 200 µM and the IC50 was over 200 µM. For the molecule `CCCc1cc(=O)oc2c3c(c4c(c12)OC(C)(C)CC4)O[C@H](C)[C@H](C)C3=O`, the half-maximal effective concentration (EC50) was over 30.2 µM and the IC50 is 13.2 µM.

As for `CCOC(=O)/C(ON)=C(/CC/C(C(=O)OC)=C(\ON)C(=O)OCC)C(=O)OC`, the EC50 is 155 µM and the IC50 worked out at 617 µM.

Regarding `COC1OC2COC1(OC)C1OC(C)(C)OC21` (configuration not stated), the EC50 was over 200 µM and the IC50 is over 200 µM.

For `CCCC(=O)OCC1(Cl)CCC2c3c(c4ccccc4n3C)CC1N2Cc1ccccc1` (configuration not stated), the EC50 was over 11.5 µM and the IC50 is 6.92 µM. For `COc1cc2c(cc1OC)C1(c3ccc(Cl)cc3)ON=C(c3ccccc3)N1CS2` (configuration not stated) the same measures were over 6.17 µM and over 6.17 µM. For `COc1ccc(/C=C/C(=O)c2ccc3c(c2)OCO3)cc1OC` the same measures were over 43.7 µM and 20.9 µM. For `S=C1NC2=C(CSC/C2=C\c2ccc(Cl)cc2)C(c2ccc(Cl)cc2)N1` (configuration not stated), the EC50 was over 200 µM and the IC50 came out at 15.8 µM.

As to `O=S(=O)(NCCSSCCNS(=O)(=O)c1ccc2ccccc2c1)c1ccc2ccccc2c1`, the EC50 is over 200 µM and the IC50 came to 64.6 µM.

Regarding `CC(=O)OCC1OC(N2C(C)=C(C(C)=O)C(c3ccc(Cl)cc3)C(C#N)=C2S)C(OC(C)=O)C(OC(C)=O)C1OC(C)=O` (configuration not stated), the EC50 was over 200 µM and the IC50 was 29.5 µM. As for `NC(N)=NS(=O)(=O)c1ccc(Nc2c3ccccc3nc3ccc(C(=O)Nc4ccc(S(N)(=O)=O)cc4)cc23)cc1`, the EC50 is over 200 µM and the IC50 was over 200 µM. For `Cc1[nH]c2cc([N+](=O)[O-])ccc2c1[N+](=O)[O-]`, the result was inactive.

As for `CN(C)/N=C(/SS/C(=N/N(C)C)C(F)(F)F)C(F)(F)F`, the outcome was inactive.

`O=P(Nc1ccccc1)(Nc1ccccc1)Nc1ccccc1`: the EC50 is over 155 µM and the IC50 turned out to be 141 µM.

As for `COc1ccc(/C=C2/CCCC/C2=N/O)cc1`, the EC50 was over 295 µM and the IC50 was 182 µM. On the same counts, the results for `O=C(/C=C/c1ccccc1Cl)c1cccc2ccccc12` are over 9.33 µM and over 9.33 µM. Consider `Nc1ncnc2c1ncc(=O)n2C1CC(O)C(CO)O1` (configuration not stated), for which the EC50 is over 200 µM and the concentration for half-maximal inhibition (IC50) was over 200 µM. As to `Cc1nc(N)c(N=O)c(=O)[nH]1`, the EC50 was over 200 µM and the IC50 is over 200 µM. `O=C(/C(=C/c1ccc(F)cc1)c1ccccc1)c1ccccc1`: the EC50 is over 6.61 µM and the IC50 was over 6.61 µM.

Consider `Nc1ncc(Cl)c(NCC2(CO)CC(CCc3ccccc3)C2)n1` (configuration not stated), for which the EC50 is over 200 µM and the IC50 came to 3.24 µM. Regarding `Nc1nc2c(-c3ccc([N+](=O)[O-])cc3)nnn2c2ccccc12`, the EC50 is over 4.68 µM and the IC50 is over 4.68 µM. On to `N#Cc1ccccc1NC1OCC(O)C(O)C1O` (configuration not stated), for which the outcome was inactive. Turning to `CCOC(=O)c1nc2cc(F)c(N3CCOCC3)cc2[nH]c1=O`, the EC50 was over 200 µM and the IC50 stood at 95.5 µM. With `Cc1cc(Cl)ccc1N=C1NC(=O)C(CC(=O)Nc2ccc([N+](=O)[O-])cc2[N+](=O)[O-])S1` (configuration not stated), the EC50 is over 77.6 µM and the IC50 was determined as 67.6 µM. For `COc1cc(O)c2c(=O)c(OC)c(-c3ccc(OC)c(OC)c3)oc2c1`, the result was inactive. On to `C/C(=N/N)c1sc(-c2nc(C)c(/C(C)=N\N)s2)nc1C`, for which the EC50 was over 61.7 µM and the IC50 was over 61.7 µM. With `Cc1cc(NS(=O)(=O)c2ccc(Nc3c4ccccc4nc4ccc(C(=O)Nc5ccc(S(N)(=O)=O)cc5)cc34)cc2)no1`, the EC50 is over 200 µM and the IC50 came out at 110 µM. On the same counts, the results for `CCOC(=O)NC(=S)NN(C)C1=NCC(C)(C)S1` are over 200 µM and over 200 µM. Regarding `CCCNC(=O)NS(=O)(=O)c1ccc(Cl)cc1`, the outcome was inactive. Take `CC(C)(C)c1cc2c(O)c(c1)COCc1cc(C(C)(C)C)cc(c1O)COCc1cc(C(C)(C)C)cc(c1O)COC2`: the EC50 is over 200 µM and the concentration for half-maximal inhibition (IC50) came to 145 µM. On the same counts, the results for `C[C@]12CCC3[C@@H](CC[C@@H]4c5nonc5CC[C@]34C)C1CCC(=O)N2` (some centres not stated) are over 97.7 µM and over 97.7 µM. For the molecule `CC(C)c1ccccc1NC(=O)/C(Cl)=C1/Sc2ccccc2NC1=O`, the EC50 is over 10 µM and the IC50 was over 10 µM. For `CCOC(=O)c1nc2cc(C(F)(F)F)ccc2nc1Oc1ccc(C#N)cc1`, the EC50 was over 200 µM and the IC50 was 93.3 µM. For `O=C(CC(=O)CC(O)(C(F)(F)F)C(F)(F)F)CC(O)(C(F)(F)F)C(F)(F)F`, the EC50 is over 200 µM and the concentration for half-maximal inhibition (IC50) was 10.5 µM. For `C1C2OC2C2C1C1CC2C2OC12` (configuration not stated), the EC50 was over 1510 µM and the IC50 is over 1510 µM. Take `C[n+]1c(/C=C/c2ccc(/C=N/NC(=O)c3ccc(C(=O)N/N=C/c4ccc(/C=C/c5cn6ccccc6[n+]5C)cc4)cc3)cc2)cn2ccccc21`: the EC50 is over 3.55 µM and the IC50 was over 3.55 µM. Turning to `O=C1O[C@H]2CCC3=CC[C@@H](c4ccccc4)C=C1[C@H]32`, the result was inactive.

On to `CCCCCC1CC2=C(C(=O)OC2=O)C(O)C(O)(CCCC)CC2=C1C(=O)OC2=O` (configuration not stated), for which the EC50 is over 85.1 µM and the IC50 is over 85.1 µM.

In the case of `Cc1cccc2ns[s+]c12`, the EC50 is over 18.6 µM and the IC50 was over 18.6 µM.

For `CN/N=C(/Cc1occc(=O)c1O)C(=O)Nc1ccccc1C`, the EC50 is over 794 µM and the IC50 was 724 µM. As to `NC1CCCCC1NCCNC1CCCCC1N` (configuration not stated), the EC50 is over 200 µM and the IC50 came to 178 µM. Turning to `CCCc1cc(=O)oc2c3c(c4c(c12)OC(C)(C)C=C4)O[C@@H](C)[C@H](C)C3=O`, the EC50 is 4.9 µM and the IC50 was determined as 97.7 µM.

Take `Nc1ccc2[se]nc3c2c1C(=O)c1ccccc1-3`: the EC50 is over 6.76 µM and the IC50 was over 6.76 µM. On to `NC(=S)C(=S)N/C=C/c1nc2ccccc2[nH]c1=O`, for which the EC50 was over 200 µM and the IC50 was 7.94 µM.

With `O=C1CC2(C(=O)N1CN1CCOCC1)c1ccccc1-c1ccccc12`, the EC50 is over 102 µM and the IC50 came to 13.8 µM. For `OCCCSCCCCSCCCO` the same measures were over 41.7 µM and over 41.7 µM.

As to `CCOC(=O)CCC(NC(=O)C(CC(=O)OC)NC(=O)C(CC(=O)OC)NC(=O)C(CC(=O)OC)NC(=O)C(CC(=O)OC)NC(=O)OCc1ccccc1)C(=O)NC(CCC(=O)OCC)C(=O)NC(CCC(=O)OCC)C(=O)OCC` (configuration not stated) (Cbz-D(OMe)D(OMe)D(OMe)D(OMe)E(OEt)E(OEt)E(OEt)-OEt; configuration not given here), the EC50 is over 50.1 µM and the half-maximal inhibitory concentration (IC50) was over 50.1 µM. On to `O=C1C(Cl)=C(Cl)C(=O)N1c1cccc(C(F)(F)F)c1`, for which the outcome was inactive.

For the molecule `CCS(=O)(=O)CCn1cnc2c1c(=O)n(C)c(=O)n2C`, the EC50 was over 200 µM and the half-inhibitory concentration (IC50) was over 200 µM. In the case of `O/N=C(/CC(O)(C(F)(F)F)C(F)(F)F)c1ccccc1`, the EC50 is over 200 µM and the half-inhibitory concentration (IC50) was over 200 µM.

Values taken from PubChem BioAssay AID179 (DTP/NCI, 2004).
